Assay [1] has as its system HEY. Briefly: Cytotoxicity against human HEY cell line at 20 uM by MTT assay. The format is functional. Background: Tetrazolium dyes change colour on reduction, which living cells bring about.
The test system of assay [2] is MCF7. Briefly: Cytotoxicity against human MCF7 cell line by MTT assay. The format is functional, cell-based.
The test system of the next assay is NIH3T3. The experiment in a line: Cytotoxicity against mouse NIH3T3 cell line by MTT assay. The format is functional, cell-based.
The test system of assay [3] is HEY. The experiment in a line: Cytotoxicity against human HEY cell line by MTT assay. The format is functional, cell-based.
In assay [4] the test system is MDA-MB-435. The experiment in a line: Cytotoxicity against human MDA-MB-435 cell line by MTT assay. The format is functional, cell-based.
The next assay deals with NCI-H1975. Briefly: Cytotoxicity against human NCI-H1975 cell line by MTT assay. The format is functional, cell-based.
The subject of assay [5] is MDA-MB-435. Briefly: Cytotoxicity against human MDA-MB-435 cell line at 20 uM by MTT assay. The format is functional.
For assay [6], the system named is MCF7. Briefly: Cytotoxicity against human MCF7 cell line at 20 uM by MTT assay. The class given is functional.
For a further assay, the target named is Integrin alpha-V/beta-3 (Homo sapiens, UniProt P05106+P06756). The experiment in a line: Inhibition of [125I]echistatin binding to integrin alphaVbeta3 receptor. The format is protein-complex assay.

Here are results for 29 compounds from ChEMBL document CHEMBL1137431, “Discovery of small molecule integrin alphavbeta3 antagonists as novel anticancer agents” (J Med Chem, 2006).

Chain of Integrin alpha-V/beta-3 (P05106 27-788 limits assumed): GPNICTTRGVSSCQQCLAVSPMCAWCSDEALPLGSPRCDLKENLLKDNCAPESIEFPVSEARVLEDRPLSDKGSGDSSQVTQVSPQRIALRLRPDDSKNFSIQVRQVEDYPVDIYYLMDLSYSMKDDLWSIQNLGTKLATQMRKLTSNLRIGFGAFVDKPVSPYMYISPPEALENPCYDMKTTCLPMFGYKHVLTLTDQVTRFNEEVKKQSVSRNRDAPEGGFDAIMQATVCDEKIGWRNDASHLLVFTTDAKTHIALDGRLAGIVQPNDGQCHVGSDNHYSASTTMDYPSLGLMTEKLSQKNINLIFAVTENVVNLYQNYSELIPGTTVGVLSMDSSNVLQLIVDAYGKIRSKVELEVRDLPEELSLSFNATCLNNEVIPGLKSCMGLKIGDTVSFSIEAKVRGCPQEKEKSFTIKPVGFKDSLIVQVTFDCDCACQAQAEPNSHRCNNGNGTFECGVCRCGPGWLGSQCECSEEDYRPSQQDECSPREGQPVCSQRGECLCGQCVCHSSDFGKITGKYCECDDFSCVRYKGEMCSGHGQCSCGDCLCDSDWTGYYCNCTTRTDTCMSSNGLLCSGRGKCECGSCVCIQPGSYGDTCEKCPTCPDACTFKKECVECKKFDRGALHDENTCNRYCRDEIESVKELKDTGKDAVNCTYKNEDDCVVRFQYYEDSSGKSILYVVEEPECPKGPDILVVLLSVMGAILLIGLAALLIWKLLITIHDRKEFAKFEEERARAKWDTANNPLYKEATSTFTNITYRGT
Chain of Integrin alpha-V/beta-3 (P06756 31-889 limits assumed): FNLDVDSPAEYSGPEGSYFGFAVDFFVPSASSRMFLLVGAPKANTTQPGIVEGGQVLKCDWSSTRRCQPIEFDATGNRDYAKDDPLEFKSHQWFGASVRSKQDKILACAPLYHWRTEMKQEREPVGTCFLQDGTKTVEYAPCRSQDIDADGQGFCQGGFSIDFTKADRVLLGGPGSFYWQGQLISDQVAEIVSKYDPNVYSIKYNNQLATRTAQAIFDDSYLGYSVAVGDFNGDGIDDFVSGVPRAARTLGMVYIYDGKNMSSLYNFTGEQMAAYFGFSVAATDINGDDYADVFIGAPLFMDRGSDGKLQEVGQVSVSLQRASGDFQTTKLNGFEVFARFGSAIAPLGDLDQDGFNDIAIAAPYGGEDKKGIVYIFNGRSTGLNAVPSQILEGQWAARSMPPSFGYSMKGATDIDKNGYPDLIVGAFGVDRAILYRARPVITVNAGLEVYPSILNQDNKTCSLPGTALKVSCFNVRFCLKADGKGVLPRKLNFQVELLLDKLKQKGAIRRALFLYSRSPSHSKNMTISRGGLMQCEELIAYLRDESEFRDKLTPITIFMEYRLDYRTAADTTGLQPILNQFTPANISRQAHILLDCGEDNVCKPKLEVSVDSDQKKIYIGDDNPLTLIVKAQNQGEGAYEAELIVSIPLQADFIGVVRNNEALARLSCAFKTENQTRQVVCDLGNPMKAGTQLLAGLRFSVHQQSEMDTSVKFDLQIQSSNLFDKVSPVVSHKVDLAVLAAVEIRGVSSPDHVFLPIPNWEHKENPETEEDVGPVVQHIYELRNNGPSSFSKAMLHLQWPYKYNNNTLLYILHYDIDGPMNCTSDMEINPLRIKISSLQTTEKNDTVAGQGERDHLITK
Chain of Integrin alpha-V/beta-3 (P06756 891-1048 limits assumed): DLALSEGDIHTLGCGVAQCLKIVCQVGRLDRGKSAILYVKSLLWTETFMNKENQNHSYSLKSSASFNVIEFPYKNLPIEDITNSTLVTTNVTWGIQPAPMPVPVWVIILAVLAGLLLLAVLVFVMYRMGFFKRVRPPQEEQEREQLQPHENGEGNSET

With `Cc1nnc(N/N=C/c2ccc(OCC(=O)O)cc2)nc1O`, the inhibition at 20 µM with HEY [1] worked out at 0%.
For `Cc1ccc(NC(=O)CN2C(=O)N/C(=C\c3cccn3-c3cccc(C(=O)O)c3)C2=O)cc1`, the IC50 with MCF7 [2], in the assay with NIH3T3, in the assay with HEY [3], in the assay on MDA-MB-435 [4] and in the assay with NCI-H1975 was over 20 µM in each case. The compound further had an inhibition at 20 µM with HEY [1] of 5%.
As for `Nc1nc(=O)c2cc(CSc3ccc(C(=O)NC(CCC(=O)O)C(=O)O)cc3)ccc2[nH]1` (configuration not stated), at 20 µM the inhibition in the assay on HEY [1] was 0%.
Turning to `COc1cc(Cl)c(/C=C2\S/C(=N/c3cccc(C(=O)O)c3)N(C)C2=O)cc1OC`, the IC50 in the assay on MCF7 [2], in the assay on NIH3T3, in the assay on HEY [3], with MDA-MB-435 [4] and with NCI-H1975 was over 20 µM each time. In the assay with HEY [1], this compound had an inhibition at 20 µM of 0%.
For `O=C(O)c1ccc(-c2ccc(/C=N/Nc3nc(Nc4ccccc4)nc(Nc4ccccc4)n3)o2)cc1`, the values for the half-inhibitory concentration (IC50) with MCF7 [2], with HEY [3] and in the assay with MDA-MB-435 [4] were over 20 µM, 21 µM and 18 µM, respectively.
Compound `Nc1nc(O)c2cc(COc3ccc(C(=O)NC(CCC(=O)O)C(=O)O)cc3)ccc2n1` (configuration not stated) displayed an inhibition at 20 µM in the assay on HEY [1] of 6%.
For `CS(=O)(=O)Nc1ccc(C2=NN(C(=O)CCCC(=O)O)C(c3ccco3)C2)cc1` (configuration not stated), the IC50 in the assay on MCF7 [2], in the assay with NIH3T3, in the assay with HEY [3], in the assay with MDA-MB-435 [4] and in the assay with NCI-H1975 was over 20 µM each time.
Regarding `CC1=NN(c2ccc(S(N)(=O)=O)cc2)C(=O)/C1=C\c1ccc(-c2ccccc2C(=O)O)o1`, the inhibition at 20 µM in the assay with HEY [1] is 5%; in the assay on MDA-MB-435 [5], 24%; in the assay with MCF7 [6], 20%.
In the assay with HEY [1], `CCn1cc(C(=O)O)c(=O)c2cc(F)c(N3CCN(S(=O)(=O)c4ccc(NC(C)=O)cc4)CC3)cc21` gave an inhibition at 20 µM of 0%.
With `Nc1nc(O)c2nc(CCCNc3ccc(C(=O)NC(CCC(=O)O)C(=O)O)cc3)cnc2n1` (configuration not stated), the IC50 in the assay on MCF7 [2], with NIH3T3, in the assay with HEY [3], in the assay on MDA-MB-435 [4] and in the assay with NCI-H1975 was over 20 µM each time. The compound also had an inhibition at 20 µM in the assay on HEY [1] of 0%.
Take `CCOc1cc(/C=N/Nc2nc(Nc3ccccc3)nc(N3CCCCC3)n2)ccc1OCC(=O)O`: testing at 20 µM with HEY [1] gave an inhibition of 0%.
Regarding `CCOc1ccc(/N=C2/S/C(=C\c3ccc(N(C)C)cc3)C(=O)N2CC)cc1`, the IC50 with MCF7 [2], in the assay on NIH3T3, in the assay on HEY [3], in the assay with MDA-MB-435 [4] and in the assay on NCI-H1975 was over 20 µM throughout.
As to `Cc1ccnc(NS(=O)(=O)c2ccc(NC(=O)c3ccc(C(=O)O)cc3C(=O)O)cc2)n1`, the inhibition at 20 µM in the assay on HEY [1] is 0%.
Regarding `CC1=NN(c2ccc(C(=O)O)cc2)C(=O)/C1=C/c1ccc(-c2ccc(S(N)(=O)=O)cc2)o1`, the IC50 is 19 µM in the assay on MCF7 [2], over 20 µM in the assay with HEY [3] and over 20 µM in the assay on MDA-MB-435 [4]. In the assay on HEY [1], the inhibition at 20 µM was found to be 6%.
`Nc1ccc(C(=O)Nc2nc3ccc(C(=O)O)cc3s2)cc1` registered an inhibition at 20 µM in the assay with HEY [1] of 0%.
In turn, `COc1cc(OC)c(/C=C2\S/C(=N/c3ccc(C(=O)O)cc3)N(C)C2=O)cc1Br` had an inhibition at 20 µM in the assay with HEY [1] of 4%.
`Nc1nc(O)c2nc3c(nc2n1)C(=O)N(c1ccc(C(=O)NC(CCC(=O)O)C(=O)O)cc1)C3` (configuration not stated) returned an inhibition at 20 µM in the assay with HEY [1] of 0%.
Still for that read-out and setting: under `CC1=C(C#N)c2nc(N)c(C#N)c(C)c2/C1=C/c1ccc(-c2ccc(Cl)c(C(=O)O)c2)o1` stands 14%.
Turning to `CN(C)c1ccc(/C=C2\SC(=Nc3ccc(O)cc3)NC2=O)cc1`, the IC50 with MCF7 [2] was over 20 µM; on Integrin alpha-V/beta-3, over 1 µM; with HEY [3], over 20 µM; with MDA-MB-435 [4], 2.8 µM.
Regarding `COc1cc(O)c(Cl)cc1/C=C1\S/C(=N/c2cccc(C(=O)O)c2)N(C)C1=O`, the inhibition at 20 µM in the assay on HEY [1] turned out to be 0%; with MDA-MB-435 [5] it was 3%; in the assay on MCF7 [6] it was 9%.
In the assay with HEY [1], `O=C(O)COc1ccc(/C=N/NC(=O)c2ccc(O)cc2)cc1OCC(=O)O` came in with an inhibition at 20 µM of 9%.
In the case of `O=C(CSc1nnn(-c2ccc(O)cc2)n1)NCc1cccc(C(=O)O)c1`, the figures for the inhibition at 20 µM in the assay on HEY [1], with MDA-MB-435 [5] and with MCF7 [6] were 0%, 9% and 34%, respectively.
Consider `O=C(O)c1cccc(-c2ccc(/C=N/Nc3nc4nonc4nc3Nc3ccc(F)cc3)o2)c1`, for which the IC50 with MCF7 [2] is 19 µM; in the assay with NIH3T3, 13 µM; at Integrin alpha-V/beta-3, over 1 µM; in the assay on HEY [3] it was 7 µM; in the assay on MDA-MB-435 [4], 8 µM; with NCI-H1975 it was over 20 µM. Further, in the assay with HEY [1], the inhibition at 20 µM stood at 90%.
On to `CCOc1cc(/C=C2/S/C(=N\c3ccc(C(=O)O)cc3)N(C)C2=O)ccc1O`, for which the IC50 in the assay with MCF7 [2] was over 20 µM; in the assay with NIH3T3, over 20 µM; at Integrin alpha-V/beta-3, 0.24 µM; with HEY [3], 13 µM; with MDA-MB-435 [4], 0.34 µM; with NCI-H1975, over 20 µM. For the same compound, the inhibition at 20 µM in the assay on HEY [1] worked out at 51%; with MDA-MB-435 [5], 94%; in the assay with MCF7 [6], 37%.
On to `CN(Cc1cnc2nc(N)nc(N)c2n1)c1ccc(C(=O)NC(CCCCN)C(=O)O)cc1` (configuration not stated), for which the inhibition at 20 µM in the assay on HEY [1] is 0%.
For `CC(=O)Nc1nc(O)c2nc(CCN(C)c3ccc(C(=O)O)cc3)cnc2n1`, in the assay on HEY [1], the inhibition at 20 µM is 0%.
In the case of `COc1cc(/C=C2/NC(=O)N(CC(=O)Nc3ccc(C)cc3)C2=O)ccc1OCc1cccc(C(=O)O)c1`, the inhibition at 20 µM is 0% in the assay with HEY [1], 26% with MDA-MB-435 [5] and 43% in the assay on MCF7 [6].
In the case of `COc1cc(/C=N/Nc2nc(Nc3ccc(F)cc3)nc(N3CCCCC3)n2)ccc1OCC(=O)O`, the inhibition at 20 µM in the assay with HEY [1] was determined as 0%.
In the assay on HEY [1], `O=C(CCCCn1cnc2c(S)ncnc21)Nc1ccc(C(=O)O)c(O)c1` gave an inhibition at 20 µM of 0%.

By inhibition is commonly meant the relative decrease from the control value, in per cent. Low values mean a weak effect, high ones a strong effect. As usually defined, the IC50 is the concentration that gives 50% inhibition.
